Reference: PubChem BioAssay (NCI)
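In this assay, cells in 96-well plates receive the compound at five concentrations for 48 hours. Endpoints are linearly interpolated between the surrounding concentrations. GI50 is the concentration that inhibits growth by half. TGI is the concentration that stops growth completely.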

What was measured:
Assay in all cases: NCI anticancer screen, dose series, 48 h
[1] = test system: HOP-92 NSCLC
[2] = test system: SR leukemia
[3] = test system: UO-31 renal
[4] = test system: SK-MEL-5 melanoma
[5] = test system: EKVX NSCLC
[6] = test system: KM12 colon
[7] = test system: OVCAR-8 ovarian
[8] = test system: MCF7 breast
[9] = test system: NCI-H522 lung
[10] = test system: CAKI-1 renal
[11] = test system: T-47D breast
[12] = test system: NCI-H23 lung
[13] = test system: A498 renal
[14] = test system: OVCAR-4 ovarian
[15] = test system: BT-549 breast
[16] = test system: NCI-H460 lung
[17] = test system: MOLT-4 leukemia
[18] = test system: SF-539 CNS
[19] = test system: SW-620 colon
[20] = test system: HCC-2998 colon
[21] = test system: SK-MEL-2 melanoma
[22] = test system: MALME-3M melanoma
[23] = test system: NCI-H226 lung
[24] = test system: UACC-62 melanoma
[25] = test system: SF-268 CNS
[26] = test system: SK-MEL-28 melanoma
[27] = test system: OVCAR-3 ovarian
[28] = test system: SN12C renal
[29] = test system: MDA-MB-231 breast
[30] = test system: IGROV1 ovarian
[31] = test system: HOP-62 NSCLC
[32] = test system: DU-145 prostate
[33] = test system: SK-OV-3 ovarian
[34] = test system: RPMI-8226 leukemia
[35] = test system: ACHN renal
[36] = test system: M14 melanoma
[37] = test system: HCT-15 colon
[38] = test system: SNB-19 CNS
[39] = test system: SF-295 CNS
[40] = test system: HCT-116 colon
[41] = test system: K-562 leukemia
[42] = test system: TK-10 renal
[43] = test system: LOX IMVI melanoma
[44] = test system: SNB-75 CNS
[45] = test system: PC-3 prostate
[46] = test system: A549 NSCLC
[47] = test system: U251 CNS
[48] = test system: HS 578T breast
[49] = test system: HL-60(TB) leukemia
[50] = test system: NCI/ADR-RES ovarian
[51] = test system: COLO 205 colon
[52] = test system: OVCAR-5 ovarian
[53] = test system: 786-0 renal
[54] = test system: HT29 colon
[55] = test system: CCRF-CEM leukemia

COc1ccc(C2CC(=O)c3c(O)c(OC)c(OC)c(OC)c3O2)cc1O (stereo not drawn)
GI50 [1]: 518 nM
TGI [1]: 82400 nM
GI50 [2]: 46.7 nM
TGI [2]: > 100000 nM
GI50 [3]: 2180 nM
TGI [3]: > 100000 nM
GI50 [4]: 219 nM
TGI [4]: 6870 nM
GI50 [5]: 530 nM
TGI [5]: > 100000 nM
GI50 [6]: 58.5 nM
TGI [6]: > 100000 nM
GI50 [7]: 175 nM
TGI [7]: > 57100 nM
GI50 [8]: 124 nM
TGI [8]: > 100000 nM
GI50 [9]: 38.6 nM
TGI [9]: 775 nM
GI50 [10]: 430 nM
TGI [10]: > 100000 nM
GI50 [11]: 19200 nM
TGI [11]: 77900 nM
GI50 [12]: 547 nM
TGI [12]: > 100000 nM
GI50 [13]: 2340 nM
TGI [13]: 33200 nM
GI50 [14]: 3780 nM
TGI [14]: > 100000 nM
GI50 [15]: 74.5 nM
TGI [15]: 31200 nM
GI50 [16]: 195 nM
GI50 [17]: 105 nM
TGI [17]: > 100000 nM
GI50 [18]: 66.6 nM
TGI [18]: > 100000 nM
GI50 [19]: 41.8 nM
TGI [19]: > 100000 nM
GI50 [20]: 999 nM
TGI [20]: > 100000 nM
GI50 [21]: 240 nM
TGI [21]: > 100000 nM
GI50 [22]: 32800 nM
TGI [22]: > 100000 nM
GI50 [23]: 14100 nM
TGI [23]: > 100000 nM
GI50 [24]: 504 nM
TGI [24]: > 73700 nM
GI50 [25]: 407 nM
TGI [25]: > 100000 nM
GI50 [26]: 14400 nM
TGI [26]: > 100000 nM
GI50 [27]: 62.7 nM
TGI [27]: 749 nM
GI50 [28]: 1100 nM
TGI [28]: > 100000 nM
GI50 [29]: 625 nM
TGI [29]: > 100000 nM
GI50 [30]: 976 nM
TGI [30]: > 100000 nM
GI50 [31]: 377 nM
TGI [31]: > 100000 nM
GI50 [32]: 225 nM
TGI [32]: > 100000 nM
GI50 [33]: 371 nM
TGI [33]: > 100000 nM
GI50 [34]: 286 nM
TGI [34]: > 77500 nM
GI50 [35]: 572 nM
TGI [35]: > 100000 nM
GI50 [36]: 51.5 nM
TGI [36]: > 100000 nM
GI50 [37]: 45.9 nM
TGI [37]: > 100000 nM
GI50 [38]: 83.3 nM
TGI [38]: > 100000 nM
GI50 [39]: 374 nM
TGI [39]: > 100000 nM
GI50 [40]: 103 nM
TGI [40]: > 100000 nM
GI50 [41]: 36.5 nM
TGI [41]: > 100000 nM
GI50 [42]: > 31400 nM
TGI [42]: > 100000 nM
GI50 [43]: 70.1 nM
TGI [43]: > 100000 nM
GI50 [44]: 35.8 nM
TGI [44]: > 100000 nM
GI50 [45]: 64.2 nM
TGI [45]: > 100000 nM
GI50 [46]: 817 nM
TGI [46]: > 100000 nM
GI50 [47]: 191 nM
TGI [47]: > 100000 nM
GI50 [48]: 49.8 nM
TGI [48]: > 100000 nM
GI50 [49]: 26.3 nM
GI50 [50]: 61.6 nM
TGI [50]: > 100000 nM
GI50 [51]: 6630 nM
TGI [51]: 32500 nM
GI50 [52]: > 100000 nM
TGI [52]: > 100000 nM
GI50 [53]: 1640 nM
TGI [53]: > 100000 nM
GI50 [54]: 3400 nM
TGI [54]: > 64500 nM
GI50 [55]: 115 nM
TGI [55]: > 100000 nM
